Experiments:
[1] = test system: CagA, VacA and SecA proteins; test: Western blotting of H. pylori toxins CagA, VacA and SecA; type: cell-based, Helicobacter pylori; details: 125, 250 and 500 μg/ml, 3 days culture
Method: To evaluate the effect of beta-caryophyllene treatment on the production of toxins secreted by Helicobacter pylori, Helicobacter pylori was treated with beta-caryophyllene, and then the amounts of CagA, VacA and SecA proteins were analyzed by Western blotting.
For Western blotting, samples obtained by treating Helicobacter pylori with beta-caryophyllene at concentrations of 0, 125, 250 and 500 μg/ml and culturing the treated Helicobacter pylori for 3 days were lysed with RIPA lysis buffer (Millipore) on ice for 30 minutes and then centrifuged. The supernatants were collected, and then proteins therein were quantified using a spectrophotometer (Infinite M200, TECAN).
Equal amounts of protein samples were loaded and electrophoresed on 10% SDS polyacrylamide gel, and the protein fractions were transferred to nitrocellulose membranes (PALL) and reacted with CagA (mouse monoclonal IgG antibody, Santa Cruz), VacA (rabbit polyclonal IgG antibody, Santa Cruz), SecA (rabbit polyclonal IgG antibody, produced by the applicant) and anti-Helicobacter pylori (rabbit polyclonal IgG antibody, produced by the applicant) antibodies at 4° C. for 16 hours. After completion of the primary antibody reaction, secondary blocking (1 hr/RT) was performed. As secondary antibodies, donkey anti-rabbit IgG-HRP, donkey anti-mouse IgG-HRP or donkey anti-goat IgG-HRP (Santa Cruz) was used depending on the primary antibody. The reaction products were treated by an enhanced chemiluminescence kit (Thermo), and then analyzed by Chemidoc (Fusion solo, Vilber Lourmat).

H. pylori [2] = test: CLO score after the CLO test; type: in vivo, C57BL/6 mouse; details: for CLO score: 28 days, score 0-3, control G3 2.10
Method: (§1) In order to compare the Helicobacter pylori eradiation effect between beta-caryophyllene and the antibiotics that are used for treatment of Helicobacter pylori infection, an animal test was performed using the test groups and doses shown in Table 1 below.
(§2) Each test substance was suspended in an excipient according to the dose and administered to each mouse once a day at the same time every day for a total of 28 days in a dose of 5 ml per kg mouse (C57BL/6 mouse) by oral gavage method.
The mean and standard deviation of each group were calculated, and the difference between the values of the groups was compared, and the results are shown in Table 3 below.

[3] = test system: Helicobacter pylori 16S rRNA; test: qPCR test for gastric mucosal Helicobacter pylori (16S rRNA); type: in vivo, C57BL/6 mouse; details: for Gene expression level (Ct): 28 days, 16S rRNA vs 18SrRNA, control G3 13.80
Method: as §1, §2
After completion of the test, RNA was collected from the aseptically collected gastric mucosal tissue, and then synthesized into DNA to perform a PCR test. The marker gene used in this experiment was 16S rRNA, which is specifically found only in H. pylori and is not found in humans or mice. 18SrRNA was used as a loading control gene of the used DNA sample. The Ct value for each gene was obtained by reacting the fluorescent intercalator SYBR Green with the corresponding primer and DNA, and then calculated by relative quantification, and the results are shown in Table 4 below.

urease A and urease B = test: Expression of urease protein in H. pylori; type: cell-based, Helicobacter pylori; details: 125, 250 and 500 μg/ml, all treatment concentrations
Method: In order to evaluate the effect of beta-caryophyllene treatment on the inhibition of H. pylori urease, H. pylori was treated with beta-caryophyllene at concentrations of 125, 250 and 500 μg/ml, and changes in the expression of urease protein were analyzed, and the results are shown in FIG. 7.

H. pylori [4] = test: Minimum growth inhibitory concentration test (absorbance at 650 nm after 72 hours); type: cell-based, Helicobacter pylori (ATCC 49503); details: Mueller Hinton broth with 10% bovine serum, absorbance 650 nm
Method: For H. pylori culture, an H. pylori (ATCC 49503) strain was inoculated on a Brucella agar medium containing 10% bovine serum and antibiotics (vancomycin, esfsuldin, trimethoprim, and amphotericin B), and cultured in an anaerobic incubator which maintains 10% CO2, 5% O2, 85% N2, and 97% or more humidity, at 37° C. for 72 hours. For a minimum growth inhibitory concentration test, each of 7.81, 15.63, 31.25, 62.5, 125, 250 and 500 μg and 1, 2 and 4 mg of beta-caryophyllene was added to a medium obtained by adding 10% bovine serum to Mueller Hinton broth, and then cultured in a CO2 incubator at a relative humidity of 100% for 72 hours. Each of the bacterial solutions cultured for 72 hours was measured for absorbance at 650 nm using a spectrophotometer to determine the minimum inhibitory concentration (MIC) of beta-caryophyllene, and the results are graphically shown in FIG. 2.

H. pylori [5] = test: Gastric rapid urease test (CLO test), therapeutic rate; type: in vivo, C57BL/6 mouse; details: oral gavage, 28 days, control G3 30%
Method: as §1, §2
The rapid urease test is based on the principle according to which, when H. pylori is present in gastric mucosa, the bacteria produce ammonia by secreting urease while proliferating in a medium containing a test reagent and a pH indicator, and a change in the color of the pH indicator is examined.
The gastric mucosal tissue extracted on the day of the autopsy was collected aseptically and tested using a Campylobacter-like organism (CLO) test reagent. The tissue was incubated in an incubator at 37° C. for 2 hours, the resulting color changed from yellow to red, the sample was judged as positive. The number of mice determined to be positive was calculated as a percentage, and the therapeutic rate for H. pylori eradication by sample treatment was obtained using the following equation, and the results are shown in Table 2 below.
Therapeutic rate (%)=(number of samples−number of positive samples)/number of samples×100

[6] = G6: 100 mg/kg/day, not statistically significant
[7] = G7: 200 mg/kg/day, not statistically significant
[8] = G8: 500 mg/kg/day, statistically significant

`C=C1CC/C=C(\C)CC[C@@H]2[C@@H]1CC2(C)C` [beta-caryophyllene] was tested, and the “secretion of CagA (Western blot)” value [1] was “inhibited”, the “secretion of SecA (Western blot)” value [1] was “inhibited” and the “secretion of VacA (Western blot)” value [1] was “inhibited”. The CLO score (H. pylori [2]; G6: 100 mg/kg/day) was 1.2, the “decrease of CLO score compared to G3” value (H. pylori [2]; [6]) was 42.9% and the CLO score (H. pylori [2]; G7: 200 mg/kg/day) was 1.11. The “decrease of CLO score compared to G3” value (H. pylori [2]; [7]) was 47.1%, the CLO score (H. pylori [2]; G8: 500 mg/kg/day) was 0.5 and the “decrease of CLO score compared to G3” value (H. pylori [2]; [8]) was 76.2%. The “Gene expression level (Ct)” value ([3]; G6: 100 mg/kg/day) was 11.99 Ct, the “decrease of Ct value compared to G3” value [3, 6] was 13.1% and the “Gene expression level (Ct)” value ([3]; G7: 200 mg/kg/day) was 9.40 Ct. For the same compound, the “decrease of Ct value compared to G3” value [3, 7] was 31.9%, the “Gene expression level (Ct)” value ([3]; G8: 500 mg/kg/day) was 5.71 Ct and the “decrease of Ct value compared to G3” value [3, 8] was 58.6%. For the same compound, the “expression of urease A (Urease α)” value (urease A and urease B) was “significantly decreased”, the “expression of urease B (Urease β)” value (urease A and urease B) was “significantly decreased” and the “minimum inhibitory concentration (MIC) against H. pylori” value (H. pylori [4]) was 1 mg. It also gave a Therapeutic % (H. pylori [5]; G6: 100 mg/kg/day) of 60%, a Therapeutic % (H. pylori [5]; G7: 200 mg/kg/day) of 56% and a Therapeutic % (H. pylori [5]; G8: 500 mg/kg/day) of 80%.

— patent US20220040123A1, “ANTI-HELICOBACTER FOOD COMPOSITION COMPRISING BETA-CARYOPHYLLENE” (priority 2018, published 2022)
